Values after ≈ are worked out from the molar mass of the structure shown.
Legend:
Type in all cases: cell-based
Aspergillus flavus [1] = test: MIC, YAG medium; settings: 24 h at 35° C, MIC banded into grades; for MIC: Aspergillus flavus, 24 h, read-out: MIC grade, A. flavus
How it was run: (§1)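 Growth inhibition was measured by absorbance at 485 nm following 24 h at 35° C. Spores harvested after 5 days on Sabouraud agar served as inoculum (1−2×10^4 cfu/mL, YAG medium). The lowest drug level producing >70% inhibition was taken as MIC.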

[2] = tested on: Aspergillus fumigatus AF210; test: MIC, YAG medium; settings: 24 h at 35° C, MIC banded into grades; for MIC: Aspergillus fumigatus, read-out: MIC grade, A. fumigatus 210
How it was run: as §1

[3] = tested on: Aspergillus fumigatus AF293; test: MIC, YAG medium; settings: 24 h at 35° C, MIC banded into grades; for MIC: Aspergillus fumigatus, read-out: MIC grade, A. fumigatus
How it was run: as §1

Aspergillus niger [4] = test: MIC, YAG medium; settings: 24 h at 35° C, MIC banded into grades; for MIC: Aspergillus niger, read-out: MIC grade, A. niger
How it was run: as §1

Aspergillus terreus AT49 [5] = test: MIC, YAG medium; settings: 24 h at 35° C, MIC banded into grades; for MIC: Aspergillus terreus, read-out: MIC grade, A. terreus 49
How it was run: as §1

Aspergillus terreus AT4 [6] = test: MIC, YAG medium; settings: 24 h at 35° C, MIC banded into grades; for MIC: Aspergillus terreus, read-out: MIC grade, A. terreus
How it was run: as §1

Aspergillus flavus [7] = test: MIC, RPMI medium; settings: MIC banded into grades; for MIC: Aspergillus flavus, read-out: MIC grade, A. flavus
How it was run: (§2)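 OD485-based endpoint after 24-48 h/35° C; MIC = lowest concentration, >80% inhibition relative to drug-free. RPMI/2% glucose/0.135 M MOPS pH 7.0; 1−2×10^4 cfu/mL; range 50-0.05 mg/L.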

[8] = tested on: Aspergillus fumigatus AF210; test: MIC, RPMI medium; settings: for MIC grade, A. fumigatus 210: MIC banded into grades; for MIC: Aspergillus fumigatus, AF210, MIC banded into grades, read-out: MIC grade, A. fumigatus 210
How it was run: as §2

[9] = tested on: Aspergillus fumigatus AF293; test: MIC, RPMI medium; settings: for MIC grade, A. fumigatus: MIC banded into grades; for MIC: Aspergillus fumigatus, AF293, MIC banded into grades, read-out: MIC grade, A. fumigatus
How it was run: as §2

Aspergillus niger [10] = test: MIC, RPMI medium; settings: MIC banded into grades; for MIC: Aspergillus niger, read-out: MIC grade, A. niger
How it was run: as §2

Aspergillus terreus AT49 [11] = test: MIC, RPMI medium; settings: for MIC grade, A. terreus 49: MIC banded into grades; for MIC: Aspergillus terreus, AT49, MIC banded into grades, read-out: MIC grade, A. terreus 49
How it was run: as §2

Aspergillus terreus AT4 [12] = test: MIC, RPMI medium; settings: for MIC grade, A. terreus: MIC banded into grades; for MIC: Aspergillus terreus, AT4, MIC banded into grades, read-out: MIC grade, A. terreus
How it was run: as §2

Candida albicans = test: MIC, RPMI medium; settings: 24-48 h at 35° C., >80% growth inhibition, banded into grades; for MIC: Candida albicans
How it was run: as §2

Candida glabrata = test: MIC, RPMI medium; settings: 24-48 h at 35° C., >80% growth inhibition, banded into grades; for MIC: Nakaseomyces glabratus
How it was run: as §2

Candida krusei = test: MIC, RPMI medium; settings: 24-48 h at 35° C., >80% growth inhibition, banded into grades; for MIC: Pichia kudriavzevii
How it was run: as §2

Candida parapsilosis = test: MIC, RPMI medium; settings: 24-48 h at 35° C., >80% growth inhibition, banded into grades; for MIC: Lodderomyces parapsilosis
How it was run: as §2

Candida tropicalis = test: MIC, RPMI medium; settings: 24-48 h at 35° C., >80% growth inhibition, banded into grades; for MIC: Candida tropicalis
How it was run: as §2

SMILES | MIC grade, A. flavus (Aspergillus flavus [1]) | MIC grade, A. fumigatus 210 [2] | MIC grade, A. fumigatus [3] | MIC grade, A. niger (Aspergillus niger [4]) | MIC grade, A. terreus 49 (Aspergillus terreus AT49 [5]) | MIC grade, A. terreus (Aspergillus terreus AT4 [6]) | MIC grade, A. flavus (Aspergillus flavus [7]) | MIC grade, A. fumigatus 210 [8] | MIC grade, A. fumigatus [9] | MIC grade, A. niger (Aspergillus niger [10]) | MIC grade, A. terreus 49 (Aspergillus terreus AT49 [11]) | MIC grade, A. terreus (Aspergillus terreus AT4 [12]) | Candida MIC, C. albicans (Candida albicans) | Candida MIC, C. glabrata (Candida glabrata) | Candida MIC, C. krusei (Candida krusei) | Candida MIC, C. parapsilosis (Candida parapsilosis) | Candida MIC, C. tropicalis (Candida tropicalis) | MIC (Aspergillus flavus [1]) | MIC [2] | MIC [3] | further results
COCCn1c(C)cc(-c2ccccc2)c1C(=O)C(=O)Nc1ccc(N2CCN(c3ccc(CN4CCOCC4)cn3)CC2)cc1 [Example 103, 2-[1-(2-Methoxy-ethyl)-5-methyl-3-pheny-1H-pyrrol-2-yl]-N-{4-[4-(5-morpholin-4-ylmethyl-pyridin-2-yl)-piperazin-1-yl]-phenyl}-2-oxo-acetamide] | 1 (a grade of 1 represents an MIC of greater than 10 mg/L) | 3 (A grade of 3 represents an MIC of less than 1 mg/L) | 3 (A grade of 3 represents an MIC of less than 1 mg/L) | 1 (a grade of 1 represents an MIC of greater than 10 mg/L) | 2 (A grade of 2 represents an MIC of from 1 to 10 mg/L) | 2 (A grade of 2 represents an MIC of from 1 to 10 mg/L) | 1 (a grade of 1 represents an MIC of greater than 10 mg/L) | 2 (A grade of 2 represents an MIC of from 1 to 10 mg/L) | 2 (A grade of 2 represents an MIC of from 1 to 10 mg/L) | 3 (A grade of 3 represents an MIC of less than 1 mg/L) | 2 (A grade of 2 represents an MIC of from 1 to 10 mg/L) | 2 (A grade of 2 represents an MIC of from 1 to 10 mg/L) | 3 (A grade of 3 represents an MIC of less than 1 mg/L) | 3 (A grade of 3 represents an MIC of less than 1 mg/L) | 3 (A grade of 3 represents an MIC of less than 1 mg/L) | 3 (A grade of 3 represents an MIC of less than 1 mg/L) | 3 (A grade of 3 represents an MIC of less than 1 mg/L) | – | – | – | –
Cc1cc(C)nc(N2CCN(c3ccc(NC(=O)C(=O)c4c(-c5cccs5)cc(C)n4C)cc3)CC2)c1 [Example 13, N-{4-[4-(4,6-Dimethyl-pyridin-2-yl)-piperazin-1-yl]-phenyl}-2-(1,5-dimethyl-3-thiophen-2-yl-1H-pyrrol-2-yl)-2-oxo-acetamide] | – | – | – | – | – | – | – | – | – | – | – | – | – | – | – | – | – | < 1 µg/mL | < 1 µg/mL | < 1 µg/mL | MIC (Aspergillus niger [4]): < 1 µg/mL; MIC (Aspergillus terreus AT49 [5]): < 1 µg/mL; MIC (Aspergillus terreus AT4 [6]): < 1 µg/mL; MIC (Aspergillus flavus [7]): < 1 µg/mL; MIC [8]: < 1 µg/mL; MIC [9]: < 1 µg/mL; MIC (Aspergillus niger [10]): < 1 µg/mL; MIC (Aspergillus terreus AT49 [11]): < 1 µg/mL; MIC (Aspergillus terreus AT4 [12]): < 1 µg/mL; MIC (Candida albicans): < 1 µg/mL; MIC (Candida glabrata): < 1 µg/mL; MIC (Candida krusei): < 1 µg/mL; MIC (Candida parapsilosis): < 1 µg/mL; MIC (Candida tropicalis): < 1 µg/mL
CCOC(=O)Cn1c(C)cc(-c2ccccc2)c1C(=O)C(=O)Nc1ccc(N2CCN(c3cc(C)cc(C)n3)CC2)cc1 [Example 69, (2-{4-[4-(4,6-Dimethyl-pyridin-2-yl)-piperazin-1-yl]-phenylaminooxalyl}-5-methyl-3-phenyl-pyrrol-1-yl)-acetic acid ethyl ester] | 2 (A grade of 2 represents an MIC of from 1 to 10 mg/L) | 3 (A grade of 3 represents an MIC of less than 1 mg/L) | 3 (A grade of 3 represents an MIC of less than 1 mg/L) | 3 (A grade of 3 represents an MIC of less than 1 mg/L) | 3 (A grade of 3 represents an MIC of less than 1 mg/L) | 3 (A grade of 3 represents an MIC of less than 1 mg/L) | 1 (a grade of 1 represents an MIC of greater than 10 mg/L) | 3 (A grade of 3 represents an MIC of less than 1 mg/L) | 3 (A grade of 3 represents an MIC of less than 1 mg/L) | 3 (A grade of 3 represents an MIC of less than 1 mg/L) | 2 (A grade of 2 represents an MIC of from 1 to 10 mg/L) | 2 (A grade of 2 represents an MIC of from 1 to 10 mg/L) | 2 (A grade of 2 represents an MIC of from 1 to 10 mg/L) | 3 (A grade of 3 represents an MIC of less than 1 mg/L) | 2 (A grade of 2 represents an MIC of from 1 to 10 mg/L) | 3 (A grade of 3 represents an MIC of less than 1 mg/L) | 3 (A grade of 3 represents an MIC of less than 1 mg/L) | – | – | – | –
COCCn1ccc(C2CCC2)c1C(=O)C(=O)Nc1ccc(N2CCN(c3cc(C)cc(C)n3)CC2)cc1 [Example 104, 2-[3-Cyclobutyl-1-(2-methoxy-ethyl)-1H-pyrrol-2-yl]-N-{4-[4-(4,6-dimethyl-pyridin-2-yl)-piperizin-1-yl]-phenyl}-2-oxo-acetamide] | 1 (a grade of 1 represents an MIC of greater than 10 mg/L) | 2 (A grade of 2 represents an MIC of from 1 to 10 mg/L) | 2 (A grade of 2 represents an MIC of from 1 to 10 mg/L) | 1 (a grade of 1 represents an MIC of greater than 10 mg/L) | 2 (A grade of 2 represents an MIC of from 1 to 10 mg/L) | 2 (A grade of 2 represents an MIC of from 1 to 10 mg/L) | 1 (a grade of 1 represents an MIC of greater than 10 mg/L) | 1 (a grade of 1 represents an MIC of greater than 10 mg/L) | 1 (a grade of 1 represents an MIC of greater than 10 mg/L) | 1 (a grade of 1 represents an MIC of greater than 10 mg/L) | 1 (a grade of 1 represents an MIC of greater than 10 mg/L) | 1 (a grade of 1 represents an MIC of greater than 10 mg/L) | 2 (A grade of 2 represents an MIC of from 1 to 10 mg/L) | 3 (A grade of 3 represents an MIC of less than 1 mg/L) | 2 (A grade of 2 represents an MIC of from 1 to 10 mg/L) | 3 (A grade of 3 represents an MIC of less than 1 mg/L) | 3 (A grade of 3 represents an MIC of less than 1 mg/L) | – | – | – | –
COCCn1ccc(-c2ccc(Cl)cc2)c1C(=O)C(=O)Nc1ccc(N2CCN(c3cc(C)cc(C)n3)CC2)cc1 [Example 59, 2-[3-(4-Chloro-phenyl)-1-(2-methoxy-ethyl)-1H-pyrrol-2-yl]-N-{4-[4-(4,6-dimethyl-pyridin-2-yl)-piperazin-1-yl]-phenyl}-2-oxo-acetamide] | – | – | – | – | – | – | – | – | – | – | – | – | – | – | – | – | – | > 10 µg/mL | 1 to 10 µg/mL (≈ 1.75 to 17.5 µM) | 1 to 10 µg/mL (≈ 1.75 to 17.5 µM) | MIC (Aspergillus niger [4]): > 10 µg/mL; MIC (Aspergillus terreus AT49 [5]): 1 to 10 µg/mL (≈ 1.75 to 17.5 µM); MIC (Aspergillus terreus AT4 [6]): 1 to 10 µg/mL (≈ 1.75 to 17.5 µM); MIC (Aspergillus flavus [7]): > 10 µg/mL; MIC [8]: 1 to 10 µg/mL (≈ 1.75 to 17.5 µM); MIC [9]: 1 to 10 µg/mL (≈ 1.75 to 17.5 µM); MIC (Aspergillus niger [10]): > 10 µg/mL; MIC (Aspergillus terreus AT49 [11]): > 10 µg/mL; MIC (Aspergillus terreus AT4 [12]): > 10 µg/mL; MIC (Candida albicans): < 1 µg/mL; MIC (Candida glabrata): < 1 µg/mL; MIC (Candida krusei): 1 to 10 µg/mL (≈ 1.75 to 17.5 µM); MIC (Candida parapsilosis): < 1 µg/mL; MIC (Candida tropicalis): < 1 µg/mL
